# According to ChEMBL document CHEMBL2086273, “Significant activity of ecdysteroids on the resistance to doxorubicin in mammalian cancer cells expressing the human ABCB1 transporter” (J Med Chem, 2012):
# Assays:
# [1] = target: T1, ATP-dependent translocase ABCB1 (Homo sapiens, UniProt P08183); experiment: Inhibition of human ABCB1 expressed in mouse L5178 cells assessed as 95% inhibition of cell proliferation at compound-doxorubicin ratio of 81.5:1 after 48 hrs by MTT assay; assay type: cell-based; conditions: l5178, 48 h
# [2] = target: T1, ATP-dependent translocase ABCB1; experiment: Inhibition of human ABCB1 expressed in mouse L5178 cells assessed as 50% inhibition of cell proliferation at compound-doxorubicin ratio of 81.5:1 after 48 hrs by MTT assay; assay type: cell-based; conditions: l5178, 48 h
# [3] = target: T1, ATP-dependent translocase ABCB1; experiment: Inhibition of human ABCB1 expressed in mouse L5178 cells assessed as 75% inhibition of cell proliferation at compound-doxorubicin ratio of 81.5:1 after 48 hrs by MTT assay; assay type: cell-based; conditions: l5178, 48 h
# [4] = Antiproliferative activity against multidrug-resistant mouse L5178 cells after 72 hrs by MTT assay; assay type: functional, cell-based; conditions: L5178, 72 h
# [5] = target: T1, ATP-dependent translocase ABCB1; experiment: Inhibition of human ABCB1 pump expressed in mouse L5178 cells assessed as fluorescence activity ratio at 20 uM for 10 mins by flow cytometry relative to control; assay type: cell-based; conditions: l5178, 10 min
# [6] = target: T1, ATP-dependent translocase ABCB1; experiment: Inhibition of human ABCB1 expressed in mouse L5178 cells assessed as 95% inhibition of cell proliferation at compound-doxorubicin ratio of 20.4:1 after 48 hrs by MTT assay; assay type: cell-based; conditions: l5178, 48 h
# [7] = target: T1, ATP-dependent translocase ABCB1; experiment: Inhibition of human ABCB1 expressed in mouse L5178 cells assessed as 75% inhibition of cell proliferation at compound-doxorubicin ratio of 20.4:1 after 48 hrs by MTT assay; assay type: cell-based; conditions: l5178, 48 h
# [8] = Half life of the compound in hydrochloric acid solution at pH 1.48 at 1 mg/ml; assay type: physicochemical
# [9] = tested on: Mus musculus; experiment: Acute toxicity in CFLP mouse at 250 mg/kg, ip co-administered with […] doxorubicin after 48 hrs; assay type: organism-based; set-up: dose 250 mg/kg, route intraperitoneal; conditions: in vivo
# [10] = tested on: Mus musculus; experiment: Acute toxicity in CFLP mouse at 250 mg/kg, ip administered as single dose; assay type: organism-based; set-up: dose 250 mg/kg, route intraperitoneal; conditions: in vivo
# [11] = target: T1, ATP-dependent translocase ABCB1; experiment: Inhibition of human ABCB1 expressed in mouse L5178 cells assessed as 50% inhibition of cell proliferation at compound-doxorubicin ratio of 20.4:1 after 48 hrs by MTT assay; assay type: cell-based; conditions: l5178, 48 h
# [12] = Drug degradation of the compound in hydrochloric acid solution at pH 1.48 assessed as 20E 20,22-acetonide formation at 1 mg/ml; assay type: physicochemical; conditions: buffer
# [13] = target: T1, ATP-dependent translocase ABCB1; experiment: Inhibition of human ABCB1 expressed in mouse L5178 cells assessed as 95% inhibition of cell proliferation at compound-doxorubicin ratio of 40.8:1 after 48 hrs by MTT assay; assay type: cell-based; conditions: l5178, 48 h
# [14] = target: T1, ATP-dependent translocase ABCB1; experiment: Inhibition of human ABCB1 expressed in mouse L5178 cells assessed as 75% inhibition of cell proliferation at compound-doxorubicin ratio of 40.8:1 after 48 hrs by MTT assay; assay type: cell-based; conditions: l5178, 48 h
# [15] = target: T1, ATP-dependent translocase ABCB1; experiment: Inhibition of human ABCB1 expressed in mouse L5178 cells assessed as 50% inhibition of cell proliferation at compound-doxorubicin ratio of 40.8:1 after 48 hrs by MTT assay; assay type: cell-based; conditions: l5178, 48 h
# T1 sequence (P08183 whole entry): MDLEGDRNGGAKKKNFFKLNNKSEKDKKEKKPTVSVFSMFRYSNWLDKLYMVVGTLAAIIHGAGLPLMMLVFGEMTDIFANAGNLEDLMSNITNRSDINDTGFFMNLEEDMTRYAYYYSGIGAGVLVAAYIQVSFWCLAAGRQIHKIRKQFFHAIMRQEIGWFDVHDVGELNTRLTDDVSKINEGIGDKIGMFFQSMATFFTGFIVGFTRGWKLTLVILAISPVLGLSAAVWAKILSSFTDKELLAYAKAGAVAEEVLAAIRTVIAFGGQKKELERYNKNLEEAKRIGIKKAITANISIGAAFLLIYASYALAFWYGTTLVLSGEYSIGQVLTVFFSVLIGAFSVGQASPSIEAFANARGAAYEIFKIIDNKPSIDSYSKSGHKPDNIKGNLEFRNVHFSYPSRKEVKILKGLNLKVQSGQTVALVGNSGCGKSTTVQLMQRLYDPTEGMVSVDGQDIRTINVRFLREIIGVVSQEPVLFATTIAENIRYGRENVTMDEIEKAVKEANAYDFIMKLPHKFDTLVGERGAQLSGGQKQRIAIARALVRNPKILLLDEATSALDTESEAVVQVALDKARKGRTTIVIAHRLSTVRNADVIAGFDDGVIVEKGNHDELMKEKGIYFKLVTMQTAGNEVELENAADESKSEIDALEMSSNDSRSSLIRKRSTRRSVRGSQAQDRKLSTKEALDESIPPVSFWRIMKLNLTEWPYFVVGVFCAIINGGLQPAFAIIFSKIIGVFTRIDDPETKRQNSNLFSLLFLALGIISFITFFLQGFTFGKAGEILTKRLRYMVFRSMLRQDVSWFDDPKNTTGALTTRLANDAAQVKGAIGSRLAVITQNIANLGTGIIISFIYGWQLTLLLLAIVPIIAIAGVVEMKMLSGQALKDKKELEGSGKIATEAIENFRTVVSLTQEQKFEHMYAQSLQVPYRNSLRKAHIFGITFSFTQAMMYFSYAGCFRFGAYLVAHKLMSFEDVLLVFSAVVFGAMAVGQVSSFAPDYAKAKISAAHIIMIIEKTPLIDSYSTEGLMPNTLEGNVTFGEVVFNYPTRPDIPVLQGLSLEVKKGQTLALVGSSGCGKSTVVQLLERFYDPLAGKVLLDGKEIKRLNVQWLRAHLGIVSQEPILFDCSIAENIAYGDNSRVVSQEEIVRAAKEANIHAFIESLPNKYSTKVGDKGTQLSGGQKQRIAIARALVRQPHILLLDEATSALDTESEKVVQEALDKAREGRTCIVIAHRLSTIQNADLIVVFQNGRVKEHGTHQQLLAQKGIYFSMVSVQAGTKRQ
SMILES,fractional inhibitory concentration index (FICI) [1],fractional inhibitory concentration index (FICI) [2],fractional inhibitory concentration index (FICI) [3],IC50 [4] [µM],Ratio [5],fractional inhibitory concentration index (FICI) [13],fractional inhibitory concentration index (FICI) [14],fractional inhibitory concentration index (FICI) [15],other results
CC(C)(O)CC[C@@H](O)[C@](C)(O)[C@H]1CC[C@]2(O)C3=CC(=O)[C@@H]4C[C@@H](O)[C@@H](O)C[C@]4(C)[C@H]3CC[C@]12C,0.69,1.18,0.91,30,1.03,,,,
CC(O)(CO)CC[C@@H](O)[C@](C)(O)[C@H]1CC[C@@]2(O)C3=CC(=O)[C@]4(O)C[C@@H](O)[C@@H](O)C[C@]4(C)[C@H]3CC[C@]12C (stereo partly drawn),0.12,2.24,0.47,30,1.32,,,,
CC(C)(O)CC[C@@H](O)[C@](C)(O)[C@H]1CC[C@@]2(O)C3=CC(=O)[C@@H]4C[C@H](O)[C@@H](O)C[C@]4(C)[C@H]3CC[C@]12C,0.22,1.16,0.45,30,0.89,,,,
CC(C)(O)CC[C@H]1OC(C)(C)O[C@]1(C)[C@H]1CC[C@@]2(O)C3=CC(=O)[C@@H]4C[C@H]5OC(C)(C)O[C@H]5C[C@]4(C)[C@H]3CC[C@]12C,,,,,19.13,,,,fractional inhibitory concentration index (FICI) [6]: 0.073; fractional inhibitory concentration index (FICI) [7]: 0.14; half-life at 1 mg/ml [8]: 7.3 min; Activity [9]: Non-toxic; Activity [10]: Non-toxic; fractional inhibitory concentration index (FICI) [11]: 0.28; Drug degradation [12]: Active
CC(C)CC[C@H](O)[C@](C)(O)[C@H]1CC[C@@]2(O)C3=CC(=O)[C@@H]4C[C@@H](O)[C@@H](O)C[C@]4(C)[C@H]3[C@H](O)C[C@]12C [AJUGASTERONE C],,,,30,1.13,,,,fractional inhibitory concentration index (FICI) [6]: 1.88; fractional inhibitory concentration index (FICI) [7]: 1.66; fractional inhibitory concentration index (FICI) [11]: 1.79
C[C@@H]1C(=O)O[C@H](C)[C@H]1C[C@@H](O)[C@](C)(O)[C@H]1CC[C@@]2(O)C3=CC(=O)[C@@H]4C[C@@H](O)[C@@H](O)C[C@]4(C)[C@H]3CC[C@]12C [CYASTERONE],,,,,0.75,0.47,0.85,1.54,
CC(C)CC[C@@H](O)[C@](C)(O)[C@H]1CC[C@@]2(O)C3=CC(=O)[C@@H]4C[C@@H](O)[C@@H](O)C[C@]4(C)C3=CC[C@]12C [DACRYHAINANSTERONE],,,,,1.07,5.46,2.92,1.76,
CC[C@H](C[C@@H](O)[C@](C)(O)[C@H]1CC[C@@]2(O)C3=CC(=O)[C@@H]4C[C@@H](O)[C@@H](O)C[C@]4(C)[C@H]3CC[C@]12C)C(C)(C)O [MAKISTERONE C],,,,,0.66,0.2,0.42,0.98,
CC(C)[C@@H](O)C[C@@H](O)[C@](C)(O)[C@H]1CC[C@@]2(O)C3=CC(=O)[C@@H]4C[C@@H](O)[C@@H](O)C[C@]4(C)[C@H]3CC[C@]12C [PTEROSTERONE],,,,,0.56,0.54,0.84,1.32,
C[C@]12C[C@H](O)[C@H](O)C[C@H]1C(=O)C=C1[C@@H]2CC[C@]2(C)C(=O)CC[C@@]12O [RUBROSTERONE],,,,,0.89,0.41,0.65,1.12,
